The term inhibition denotes the change of the read-out against control, counted positive when it falls. Low readings indicate a weak effect, high ones a strong effect.

SMILES strings stand for the structures.

In patent EP4578856A1, “HETEROCYCLIC COMPOUND” (Ubience Inc., priority 2022, dated 2024) one finds inhibition data, which are given here for eleven compounds.

This assay concerns the target ROCK2 protein (Homo sapiens, UniProt O75116). The assay can be described thus: Degradation inducing activity of ROCK2 protein in HUVEC cells, Western blotting (Simple Western JESS). In kind it is cell-based. Also on record: endogenous in cells; host or cells: HUVEC (ATCC CRL-1730). To be noted: HUVEC, 24 h; for inhibition at 1 µM: degradation rate at 1 µM; for inhibition at 10 µM: degradation rate at 10 µM. Here is the method: In vitro degradation inducing activity of ROCK2 protein of compounds of Examples was evaluated by Western Blotting (WB).
By a test compound, 10 mM DMSO solution was prepared, which was used as a 10 µM test compound solution. Further, the solution was diluted 10-fold with DMSO to prepare a 1 mM solution, which was used as a 1 µM test compound solution.
HUVEC cells (ATCC: CRL-1730, Lot: 70041472) were cultured in F-12K medium supplemented with 10% FBS, 0.1 mg/mL heparin, […] Endothelial Cell Growth Supplement (ECGS, Corning), and 1% Penicillin/Streptomycin. The HUVEC cells seeded in a 24 well plate at 50,000 cells/well/1 mL were cultured for 24 hours, and then 1 µL of DMSO or a test compound solution was added thereto and treatment was performed for 24 hours. Cells were harvested and lysed for 20 minutes on ice using lysis buffer (Cell Signaling Technology, Cat#9803) supplemented with protease inhibitor cocktail (Sigma, Cat#P8340; Roche, Cat#P11873580001), and phosphatase inhibitor cocktail (Sigma, Cat#P5726, P0044). The lysate was sonicated (15 seconds, amplitude 30%, 1 cycle) and then centrifuged at 12500 rpm for 15 minutes at 4°C. The protein concentration was determined by BCA assay kit (Thermo Fisher Scientific, Cat#23225).
The western blotting was performed using Simple Western JESS (protein simple). A cell lysis sample (protein amount; about 1.06 µg) was loaded on a plate of Simple Western JESS, and the expression level of ROCK2 protein was detected using a 12-230 kDa Wes Separation Module (Protein simple, Cat#SM-WO04), an Anti-Rabbit Detection Module for Wes (Protein simple, Cat#DM-001), and a Total Protein Detection Module for Wes (Protein simple, Cat#DM-TP01). As the primary antibody, a material obtained by diluting ROCK2 (D1B1) Rabbit mAb (Cell Signaling Technology, Cat#9029) at 1:10 was used, and as the secondary antibody, a material obtained by diluting HRP-labeled anti-rabbit IgG antibody (Cell Signaling Technology, Cat#7074S) at 1:100 was used. The expression level of the target protein was standardized using the total protein amount loaded as a reference. The standardized expression level data of the control (DMSO) was taken as 100%, and the degradation rate (%) was calculated from the average standardized expression level data of the test compound. All analysis steps, such as data detection and analysis, are fully automated.
With respect to the ROCK2 protein degradation rate of the test compound, the protein degradation rates (%) at the evaluation concentrations were set to A ≥ 75%, 75% > B ≥ 50%, 50% > C ≥ 25%, and D < 25%, and are shown in Table 7.
(In general: In western blotting, separated proteins are transferred to a membrane and probed.)

Sequence of ROCK2 protein (O75116 whole entry): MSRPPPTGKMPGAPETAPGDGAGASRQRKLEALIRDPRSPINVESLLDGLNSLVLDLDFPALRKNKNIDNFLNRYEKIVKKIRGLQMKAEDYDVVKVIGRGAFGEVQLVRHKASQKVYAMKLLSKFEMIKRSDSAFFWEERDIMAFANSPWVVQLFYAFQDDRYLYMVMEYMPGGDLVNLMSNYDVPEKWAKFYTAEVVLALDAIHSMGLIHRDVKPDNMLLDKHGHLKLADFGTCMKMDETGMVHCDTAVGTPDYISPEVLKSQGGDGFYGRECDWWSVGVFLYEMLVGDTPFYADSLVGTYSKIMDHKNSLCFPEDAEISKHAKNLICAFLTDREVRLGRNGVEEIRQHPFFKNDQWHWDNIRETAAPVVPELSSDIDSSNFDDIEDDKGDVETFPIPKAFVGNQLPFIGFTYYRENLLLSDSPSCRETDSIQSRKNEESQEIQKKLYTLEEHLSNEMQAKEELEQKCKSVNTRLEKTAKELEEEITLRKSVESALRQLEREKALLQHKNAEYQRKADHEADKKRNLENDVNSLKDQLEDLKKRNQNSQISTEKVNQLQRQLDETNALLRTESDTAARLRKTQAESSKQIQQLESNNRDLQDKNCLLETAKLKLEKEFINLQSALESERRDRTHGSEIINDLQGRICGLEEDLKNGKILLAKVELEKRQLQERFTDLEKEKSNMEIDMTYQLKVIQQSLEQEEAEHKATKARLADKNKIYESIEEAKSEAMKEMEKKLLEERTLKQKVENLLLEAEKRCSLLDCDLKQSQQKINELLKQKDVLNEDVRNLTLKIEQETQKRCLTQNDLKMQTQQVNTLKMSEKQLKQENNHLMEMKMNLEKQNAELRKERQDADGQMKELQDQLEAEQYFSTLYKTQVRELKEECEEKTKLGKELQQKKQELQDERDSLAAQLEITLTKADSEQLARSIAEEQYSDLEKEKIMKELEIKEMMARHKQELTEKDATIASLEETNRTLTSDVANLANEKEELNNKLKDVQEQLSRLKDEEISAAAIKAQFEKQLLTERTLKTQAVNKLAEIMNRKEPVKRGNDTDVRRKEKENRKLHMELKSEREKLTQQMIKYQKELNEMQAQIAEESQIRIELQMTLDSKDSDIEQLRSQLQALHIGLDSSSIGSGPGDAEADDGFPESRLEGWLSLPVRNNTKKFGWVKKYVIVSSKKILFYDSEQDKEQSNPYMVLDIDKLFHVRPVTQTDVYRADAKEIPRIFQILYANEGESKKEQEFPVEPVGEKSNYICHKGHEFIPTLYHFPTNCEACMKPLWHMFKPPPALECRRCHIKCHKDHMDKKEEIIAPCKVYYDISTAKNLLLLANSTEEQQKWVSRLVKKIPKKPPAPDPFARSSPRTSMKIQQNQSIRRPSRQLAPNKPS

For the compound `C[C@@H]1CN(CC(=O)N2CC(C)(C)c3ncc(Cc4ccc(F)cc4)cc32)[C@@H](CN(C)CCOCCOCCOCCOCCOCCOCCOCCN[C@H](Cc2cccc(F)c2)C(=O)Nc2ccc(-c3ccncc3)cc2)CN1` [Example 14, (R)-27-(3-Fluorobenzyl)-1-((2R,5R)-1-(2-(6-(4-fluorobenzyl)-3,3-dimethyl-2,3-dihydro-1H-pyrrolo[3,2-b]pyridin-1-yl)-2-oxoethyl)-5-methylpiperazin-2-yl)-2-methyl-N-(4-(pyridin-4-yl)phenyl)-5,8,11,14,17,20,23-heptaoxa-2,26-diazaoctacosan-28-amide], the inhibition at 1 µM was 25 to 50% and the inhibition at 10 µM was ≥ 75%. On to `COC[C@H]1CN[C@H](C)CN1CC(=O)N1CC(C)(C)c2ncc(Cc3ccccc3OCCOCCOCCOCCOCCOCCOCCN[C@H](Cc3cccc(F)c3)C(=O)Nc3ccc(-c4ccncc4)cc3)cc21` [Example 76, (R)-2-(3-Fluorobenzyl)-23-(2-((1-(2-((2R,5R)-2-(methoxymethyl)-5-methylpiperazin-1-yl)acetyl)-3,3-dimethyl-2,3-dihydro-1H-pyrrolo[3,2-b]pyridin-6-yl)methyl)phenoxy)-N-(4-(pyridin-4-yl)phenyl)-6,9,12,15,18,21-hexaoxa-3-azatricosanamide], for which the inhibition at 1 µM was < 25% and the inhibition at 10 µM was in the range of 50 to 75%. The like results for `COC[C@H]1CN[C@H](C)CN1CC(=O)N1CC(C)(C)c2ncc(Cc3cccc(OCCOCCOCCOCCOCCOCCOCCN[C@H](Cc4cccc(F)c4)C(=O)Nc4ccc(-c5ccncc5)cc4)c3)cc21` [Example 55, (R)-2-(3-Fluorobenzyl)-23-(3-((1-(2-((2R,5R)-2-(methoxymethyl)-5-methylpiperazin-1-yl)acetyl)-3,3-dimethyl-2,3-dihydro-1H-pyrrolo[3,2-b]pyridin-6-yl)methyl)phenoxy)-N-(4-(pyridin-4-yl)phenyl)-6,9,12,15,18,21-hexaoxa-3-azatricosanamide] were, in that order, < 25% and 50 to 75%. Take `COC[C@H]1CN[C@H](C)CN1CC(=O)N1CC(C)(C)c2nc(CN(C)CCOCCOCCOCCOCCOCCOCCOCCN[C@H](Cc3cccc(F)c3)C(=O)Nc3ccc(-c4ccncc4)cc3)c(Cc3ccc(F)cc3)cc21` [Example 35, (R)-27-(3-Fluorobenzyl)-1-(6-(4-fluorobenzyl)-1-(2-((2R,5R)-2-(methoxymethyl)-5-methylpiperazin-1-yl)acetyl)-3,3-dimethyl-2,3-dihydro-1H-pyrrolo[3,2-b]pyridin-5-yl)-2-methyl-N-(4-(pyridin-4-yl)phenyl)-5,8,11,14,17,20,23-heptaoxa-2,26-diazaoctacosan-28-amide]: the inhibition at 1 µM fell in the range of 50 to 75% and the inhibition at 10 µM was ≥ 75%. With `COC[C@H]1CN[C@H](C)CN1CC(=O)N1CC(C)(C)c2nc(CN(C)CCOCCOCCOCCOCCOCCOCCOCCNC[C@@H](C(=O)Nc3ccc4cnccc4c3)c3ccccc3)c(Cc3ccc(F)cc3)cc21` [Example 42, (S)-1-(6-(4-Fluorobenzyl)-1-(2-((2R,5R)-2-(methoxymethyl)-5-methylpiperazin-1-yl)acetyl)-3,3-dimethyl-2,3-dihydro-1H-pyrrolo[3,2-b]pyridin-5-yl)-N-(isoquinolin-6-yl)-2-methyl-28-phenyl-5,8,11,14,17,20,23-heptaoxa-2,26-diazanonacosan-29-amide], the inhibition at 1 µM is 50 to 75% and the inhibition at 10 µM was ≥ 75%. For `COC[C@H]1CN[C@H](C)CN1CC(=O)N1CC(C)(C)c2ncc(Cc3ccccc3OCCOCCOCCOCCOCCOCCOCCOCCN[C@H](C)c3ccc(C(=O)Nc4ccncc4)cc3)cc21` [Example 70, 4-((R)-26-(2-((1-(2-((2R,5R)-2-(Methoxymethyl)-5-methylpiperazin-1-yl)acetyl)-3,3-dimethyl-2,3-dihydro-1H-pyrrolo[3,2-b]pyridin-6-yl)methyl)phenoxy)-6,9,12,15,18,21,24-heptaoxa-3-azahexacosan-2-yl)-N-(pyridin-4-yl)benzamide], the inhibition at 1 µM was ≥ 75% and the inhibition at 10 µM was ≥ 75%. As for `COC[C@H]1CN[C@H](C)CN1CC(=O)N1CC(C)(C)c2ncc(Cc3ccccc3OCCOCCOCCOCCOCCOCCN[C@H](C)c3ccc(C(=O)Nc4ccncc4)cc3)cc21` [Example 68, 4-((R)-20-(2-((1-(2-((2R,5R)-2-(Methoxymethyl)-5-methylpiperazin-1-yl)acetyl)-3,3-dimethyl-2,3-dihydro-1H-pyrrolo[3,2-b]pyridin-6-yl)methyl)phenoxy)-6,9,12,15,18-pentaoxa-3-azaicosan-2-yl)-N-(pyridin-4-yl)benzamide], the inhibition at 1 µM was ≥ 75%. In the case of `COC[C@H]1CN[C@H](C)CN1CC(=O)N1CC(C)(C)c2nc(CN(C)CCOCCOCCN[C@H](C)c3ccc(C(=O)Nc4ccncc4)cc3)c(Cc3ccc(F)cc3)cc21` [Example 23, 4-((R)-1-(6-(4-Fluorobenzyl)-1-(2-((2R,5R)-2-(methoxymethyl)-5-methylpiperazin-1-yl)acetyl)-3,3-dimethyl-2,3-dihydro-1H-pyrrolo[3,2-b]pyridin-5-yl)-2-methyl-5,8-dioxa-2,11-diazatridecan-12-yl)-N-(pyridin-4-yl)benzamide], the inhibition at 1 µM is ≥ 75% and the inhibition at 10 µM is ≥ 75%. Consider `COC[C@H]1CN[C@H](C)CN1CC(=O)N1CC(C)(C)c2ncc(Cc3ccccc3OCCOCCOCCOCCN[C@H](Cc3cccc(F)c3)C(=O)Nc3ccc(-c4ccncc4)cc3)cc21` [Example 73, (R)-2-(3-Fluorobenzyl)-14-(2-((1-(2-((2R,5R)-2-(methoxymethyl)-5-methylpiperazin-1-yl)acetyl)-3,3-dimethyl-2,3-dihydro-1H-pyrrolo[3,2-b]pyridin-6-yl)methyl)phenoxy)-N-(4-(pyridin-4-yl)phenyl)-6,9,12-trioxa-3-azatetradecanamide], for which the inhibition at 1 µM was < 25% and the inhibition at 10 µM is ≥ 75%.

Take `C[C@@H]1CN(CC(=O)N2CC(C)(C)c3ncc(Cc4ccc(F)cc4)cc32)[C@@H](CN(C)CCOCCOCCOCCOCCOCCOCCNC[C@@H](C(=O)Nc2ccc3cnccc3c2)c2ccccc2)CN1` [Example 20, (S)-1-((2R,5R)-1-(2-(6-(4-Fluorobenzyl)-3,3-dimethyl-2,3-dihydro-1H-pyrrolo[3,2-b]pyridin-1-yl)-2-oxoethyl)-5-methylpiperazin-2-yl)-N-(isoquinolin-6-yl)-2-methyl-25-phenyl-5,8,11,14,17,20-hexaoxa-2,23-diazahexacosan-26-amide]: the inhibition at 1 µM is 50 to 75% and the inhibition at 10 µM is ≥ 75%.

Consider `COC[C@H]1CN[C@H](C)CN1CC(=O)N1CC(C)(C)c2nc(CN(C)CCOCCN[C@H](Cc3cccc(F)c3)C(=O)Nc3ccc(-c4ccncc4)cc3)c(Cc3ccc(F)cc3)cc21` [Example 29, (R)-2-((2-(2-(((6-(4-Fluorobenzyl)-1-(2-((2R,5R)-2-(methoxymethyl)-5-methylpiperazin-1-yl)acetyl)-3,3-dimethyl-2,3-dihydro-1H-pyrrolo[3,2-b]pyridin-5-yl)methyl)(methyl)amino)ethoxy)ethyl)amino)-3-(3-fluorophenyl)-N-(4-(pyridin-4-yl)phenyl)propanamide], for which the inhibition at 1 µM was 50 to 75% and the inhibition at 10 µM is ≥ 75%.
